From patent publication US9169260B2 (MERCK SHARP & DOHME CORP., priority 2011, dated 2015)
pIC50: −log10 of the molar value.

Each molecule was assayed against GST tagged IRAK-4 (Homo sapiens (Human), UniProt Q9NWZ3) (assay: IRAK-4 Kinase Assay (IMAP fluorescence polarization)). Details: 100 μM ATP, 30 minutes at 25° C.
Type: biochemical
Protocol: The kinase activity of IRAK-4 is determined by its ability to catalyze the phosphorylation of a fluorescent polypeptide substrate. The extent of phosphorylation is measured using the IMAP technology (Molecular Devices) where the phosphorylated fluorescent substrate binds to the large M(III)-based nanoparticles which reduces the rotational speed of the substrate and thus increases its fluorescent polarization (FP).
20 μl reaction mixture contains 10 mM TriHCl, pH 7.2, 0.5 nM GST tagged IRAK-4 (SignalChem), 100 nM fluorescent peptide substrate (RP7030, Molecular Devices), 100 μM ATP, 1 mM DTT, 1 mM MgCl2, and 0.01% Tween 20. The reaction is initiated by the addition of ATP. After incubation for 30 minutes at 25° C., 60 μl of Progressive IMAP Reagent (Molecular Devices) is added to stop the reaction. Change in RP7030's FP is determined by a FP reader (Analyst HT, LH, BioSystems).

GST tagged IRAK-4, sequence (Q9NWZ3 whole entry): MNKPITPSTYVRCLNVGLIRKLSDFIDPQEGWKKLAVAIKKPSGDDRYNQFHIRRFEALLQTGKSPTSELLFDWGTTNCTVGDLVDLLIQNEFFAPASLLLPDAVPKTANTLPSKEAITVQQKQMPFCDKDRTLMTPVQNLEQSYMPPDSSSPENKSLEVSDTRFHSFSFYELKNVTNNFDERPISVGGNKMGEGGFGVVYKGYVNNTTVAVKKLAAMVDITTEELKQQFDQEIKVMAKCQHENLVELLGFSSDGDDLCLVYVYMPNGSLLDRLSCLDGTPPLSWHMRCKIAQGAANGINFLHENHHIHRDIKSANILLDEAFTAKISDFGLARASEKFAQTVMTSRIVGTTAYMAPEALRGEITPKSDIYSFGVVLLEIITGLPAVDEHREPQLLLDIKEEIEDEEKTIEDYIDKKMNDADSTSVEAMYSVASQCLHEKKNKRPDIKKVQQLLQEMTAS

SMILES	pIC50
Cc1ccc(-n2nc(C3CCC(=O)CC3)cc2NC(=O)c2cnn3cccnc23)cc1 [Example 1, N-(3-(4-oxocyclohexyl)-1-p-tolyl-1H-pyrazol-5-yl)pyrazolo[1,5-a]pyrimidine-3-carboxamide]	> 7.00
Cc1ccc(-n2nc(C3CCNCC3)cc2NC(=O)c2cnn3cccnc23)cc1 [Example 7, N-(3-(piperidin-4-yl)-1-(p-tolyl)-1H-pyrazol-5-yl)pyrazolo[1,5-a]pyrimidine-3-carboxamide]	> 7.00

Same assay, conditions: 100 μM ATP, 30 minutes at 25° C.; μM

SMILES	IC50
Cc1ccc(-n2nc(C3CCC(=NO)CC3)cc2NC(=O)c2cnn3cccnc23)cc1 (stereo not drawn) [Example 2, N-(3-(4-(hydroxyimino)cyclohexyl)-1-(p-tolyl)-1H-pyrazol-5-yl)pyrazolo[1,5-a]pyrimidine-3-carboxamide]	< 1 µM
COc1ccc(-n2nc(C3CCNCC3)cc2NC(=O)c2cnn3cccnc23)cc1 [Example 8, N-(1-(4-methoxyphenyl)-3-(piperidin-4-yl)-1H-pyrazol-5-yl)pyrazolo[1,5-a]pyrimidine-3-carboxamide]	< 1 µM
O=C(Nc1cc(C2CCNCC2)nn1-c1ccc(Cl)cc1)c1cnn2cccnc12 [Example 9, N-(1-(4-chlorophenyl)-3-(piperidin-4-yl)-1H-pyrazol-5-yl)pyrazolo[1,5-a]pyrimidine-3-carboxamide]	< 1 µM
O=C(Nc1cc(C2CCNCC2)nn1-c1ccc(F)cc1)c1cnn2cccnc12 [Example 10, N-(1-(4-fluorophenyl)-3-(piperidin-4-yl)-1H-pyrazol-5-yl)pyrazolo[1,5-a]pyrimidine-3-carboxamide]	< 1 µM
N#Cc1ccc(-n2nc(C3CCNCC3)cc2NC(=O)c2cnn3cccnc23)cc1 [Example 12, N-(1-(4-cyanophenyl)-3-(piperidin-4-yl)-1H-pyrazol-5-yl)pyrazolo[1,5-a]pyrimidine-3-carboxamide]	> 1 µM
Cc1ccccc1-n1nc(C2CCNCC2)cc1NC(=O)c1cnn2cccnc12 [Example 14, N-(3-(piperidin-4-yl)-1-(o-tolyl)-1H-pyrazol-5-yl)pyrazolo[1,5-a]pyrimidine-3-carboxamide]	> 1 µM
Cc1cccc(-n2nc(C3CCNCC3)cc2NC(=O)c2cnn3cccnc23)c1 [Example 15, N-(3-(piperidin-4-yl)-1-(m-tolyl)-1H-pyrazol-5-yl)pyrazolo[1,5-a]pyrimidine-3-carboxamide]	< 1 µM

Continued, values first:

IC50	SMILES
< 1 µM	CON=C1CCC(c2cc(NC(=O)c3cnn4cccnc34)n(-c3ccc(C)cc3)n2)CC1 (stereo not drawn) [Example 3, N-(3-(4-(methoxyimino)cyclohexyl)-1-(p-tolyl)-1H-pyrazol-5-yl)pyrazolo[1,5-a]pyrimidine-3-carboxamide]
< 1 µM	Cc1ccc(-n2nc(C3CCNC(=O)CC3)cc2NC(=O)c2cnn3cccnc23)cc1 (stereo not drawn) [Example 4, N-(3-(7-oxoazepan-4-yl)-1-(p-tolyl)-1H-pyrazol-5-yl)pyrazolo[1,5-a]pyrimidine-3-carboxamide]
< 1 µM	Cc1ccc(-n2nc(C3CCC(N(C)C)CC3)cc2NC(=O)c2cnn3cccnc23)cc1 (stereo not drawn) [Example 5, N-(3-(4-(dimethylamino)cyclohexyl)-1-(p-tolyl)-1,4-pyrazol-5-yl)pyrazolo[1,5-a]pyrimidine-3-carboxamide]
< 1 µM	Cc1ccc(-n2nc(C3CCC(O)CC3)cc2NC(=O)c2cnn3cccnc23)cc1 (stereo not drawn) [Example 6, N-(3-(4-hydroxycyclohexyl)-1-(p-tolyl)-1H-pyrazol-5-yl)pyrazolo[1,5-a]pyrimidine-3-carboxamide]
< 1 µM	O=C(Nc1cc(C2CCNCC2)nn1-c1ccc(C(F)(F)F)cc1)c1cnn2cccnc12 [Example 11, N-(3-(piperidin-4-yl)-1-(4-(trifluoromethyl)phenyl)-1H-pyrazol-5-yl)pyrazolo[1,5-a]pyrimidine-3-carboxamide]
< 1 µM	O=C(Nc1cc(C2CCNCC2)nn1-c1ccc(OC(F)(F)F)cc1)c1cnn2cccnc12 [Example 13, N-(3-(piperidin-4-yl)-1-(4-(trifluoromethoxy)phenyl)-1H-pyrazol-5-yl)pyrazolo[1,5-a]pyrimidine-3-carboxamide]
